Data taken from the NIST ThermoML archive (doi:10.1016/j.jct.2012.02.007).
Numbers after ± are expanded uncertainties.

Conditions: 101.33 kPa, Liquid; for speed of sound: Sing-around technique in a fixed-path interferometer; for mass density: Vibrating tube method

Row | SMILES | speed of sound (293.15 K) | mass density (293.15 K) | speed of sound (308.15 K) | mass density (308.15 K) | speed of sound (323.15 K) | mass density (323.15 K)
1 | CCCCn1cc[n+](C)c1.N#CN=C=[N-] [1-butyl-3-methylimidazolium dicyanamide] | 1750.2 ± 2.2 m/s | 1063.32 ± 0.97 kg/m3 | 1712.6 ± 2.2 m/s | 1053.81 ± 0.95 kg/m3 | 1667.3 ± 2.2 m/s | 1044.42 ± 0.93 kg/m3
2 | CCCCO [butan-1-ol] | 1256.7 ± 0.8 m/s | 809.53 ± 0.12 kg/m3 | 1206.5 ± 0.8 m/s | 798.06 ± 0.12 kg/m3 | 1156.9 ± 0.8 m/s | 786.21 ± 0.12 kg/m3
3 | CCC(C)O (stereo unspecified) [butan-2-ol] | 1229.5 ± 0.9 m/s | 806.47 ± 0.12 kg/m3 | 1175.5 ± 0.8 m/s | 793.92 ± 0.12 kg/m3 | 1120.3 ± 0.8 m/s | 780.44 ± 0.13 kg/m3
4 | CCCCCO [pentan-1-ol] | 1292.5 ± 1.3 m/s | 814.54 ± 0.24 kg/m3 | 1242.4 ± 1.3 m/s | 803.53 ± 0.24 kg/m3 | 1192.8 ± 1.3 m/s | 792.17 ± 0.24 kg/m3
5 | CCCO [propan-1-ol] | 1223.4 ± 0.8 m/s | 803.87 ± 0.12 kg/m3 | 1172.3 ± 0.8 m/s | 791.79 ± 0.12 kg/m3 | 1121.8 ± 0.8 m/s | 779.3 ± 0.13 kg/m3
6 | CC(C)O [propan-2-ol] | 1157.3 ± 0.8 m/s | 785.4 ± 0.13 kg/m3 | 1104.8 ± 0.8 m/s | 772.6 ± 0.13 kg/m3 | 1051.6 ± 0.8 m/s | 759 ± 0.14 kg/m3
